Laboratory results published in PubChem BioAssay AID248 (DTP/NCI, 2004).
“And” between values parts separate entries of the source, which are not always exact repeats. Identical values can stand only once. Inconclusive results and toxic doses are left out. Cut-off read from the data, not from the text of the source: active = T/C of 150% or more; inactive = T/C below 125%.

System: L1210 leukemia ip in BDF1 mice, survival T/C
Experiment: NCI In Vivo Anticancer Drug Screen. Data for tumor model L1210 Leukemia (intraperitoneal) in B6D2F1 (BDF1) mice
Conditions: endpoint: mean survival time, higher = longer survival
Procedure, shortened: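 Mice bearing the transplanted tumor received compound or vehicle. Survival of the treated group was divided by that of the vehicle-treated control group to give the ratio.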

Measured: T/C

O=C1NC(c2cccc3ccccc23)Nc2ccccc21 (centres undefined)
inactive: dose: 12.5 mg/kg/injection, schedule: Q01DX009 (oral), vehicle: Klucel (hydroxypropylcellulose) (HPC) 111 % of control | dose: 12.5 mg/kg/injection, schedule: Q01DX009 (oral), vehicle: methylcellulose (MC) 103 % of control and 109 % of control | dose: 16.0 mg/kg/injection, schedule: Q01DX009 (ip), vehicle: Klucel (hydroxypropylcellulose) (HPC) 100 % of control | dose: 16.0 mg/kg/injection, schedule: Q01DX009 (sc), vehicle: Klucel (hydroxypropylcellulose) (HPC) 98 % of control | dose: 16.0 mg/kg/injection, schedule: Q03HX008 (ip), vehicle: Klucel (hydroxypropylcellulose) (HPC) 109 % of control | dose: 16.0 mg/kg/injection, schedule: Q03HX016 (ip), vehicle: Klucel (hydroxypropylcellulose) (HPC) 104 % of control | dose: 16.0 mg/kg/injection, schedule: Q03HX024 (ip), vehicle: Klucel (hydroxypropylcellulose) (HPC) 102 % of control | dose: 32.0 mg/kg/injection, schedule: Q01DX009 (ip), vehicle: Klucel (hydroxypropylcellulose) (HPC) 98 % of control | dose: 32.0 mg/kg/injection, schedule: Q01DX009 (sc), vehicle: Klucel (hydroxypropylcellulose) (HPC) 102 % of control | dose: 40.0 mg/kg/injection, schedule: Q01DX009 (ip), vehicle: methylcellulose (MC) 110 % of control | dose: 40.0 mg/kg/injection, schedule: Q01DX009 (ip), vehicle: other 107 % of control | dose: 40.0 mg/kg/injection, schedule: Q01DX009 (oral), vehicle: Klucel (hydroxypropylcellulose) (HPC) 98 % of control and 100 % of control | dose: 40.0 mg/kg/injection, schedule: Q01DX009 (oral), vehicle: methylcellulose (MC) 110 % of control | dose: 50.0 mg/kg/injection, schedule: Q01DX009 (oral), vehicle: other 106 % of control | dose: 60.0 mg/kg/injection, schedule: Q01DX009 (oral), vehicle: Klucel (hydroxypropylcellulose) (HPC) 100 % of control and 104 % of control | dose: 60.0 mg/kg/injection, schedule: Q01DX009 (oral), vehicle: methylcellulose (MC) 103 % of control | dose: 62.5 mg/kg/injection, schedule: Q01DX005 (oral), vehicle: saline 97 % of control | dose: 62.5 mg/kg/injection, schedule: Q01DX009 (oral), vehicle: saline 97 % of control | dose: 62.5 mg/kg/injection, schedule: Q01DX009 (oral), vehicle: water 104 % of control | dose: 62.5 mg/kg/injection, schedule: Q04DX003 (oral), vehicle: saline 105 % of control | dose: 64.0 mg/kg/injection, schedule: Q01DX009 (ip), vehicle: Klucel (hydroxypropylcellulose) (HPC) 108 % of control | dose: 64.0 mg/kg/injection, schedule: Q01DX009 (sc), vehicle: Klucel (hydroxypropylcellulose) (HPC) 97 % of control | dose: 80.0 mg/kg/injection, schedule: Q01DX009 (ip), vehicle: methylcellulose (MC) 101 % of control | dose: 80.0 mg/kg/injection, schedule: Q01DX009 (oral), vehicle: Klucel (hydroxypropylcellulose) (HPC) 109 % of control | dose: 80.0 mg/kg/injection, schedule: Q01DX009 (oral), vehicle: methylcellulose (MC) 105 % of control and 110 % of control | dose: 100.0 mg/kg/injection, schedule: Q01DX009 (oral), vehicle: Klucel (hydroxypropylcellulose) (HPC) 100 % of control | dose: 100.0 mg/kg/injection, schedule: Q01DX009 (oral), vehicle: saline 104 % of control and 106 % of control | dose: 100.0 mg/kg/injection, schedule: Q04DX003 (ip), vehicle: other 103 % of control | dose: 100.0 mg/kg/injection, schedule: Q04DX003 (oral), vehicle: Klucel (hydroxypropylcellulose) (HPC) 98 % of control and 104 % of control | dose: 100.0 mg/kg/injection, schedule: Q04DX003 (oral), vehicle: methylcellulose (MC) 104 % of control and 107 % of control | dose: 100.0 mg/kg/injection, schedule: Q04DX003 (oral), vehicle: other 105 % of control | dose: 120.0 mg/kg/injection, schedule: Q01DX009 (oral), vehicle: Klucel (hydroxypropylcellulose) (HPC) 104 % of control | dose: 120.0 mg/kg/injection, schedule: Q01DX009 (oral), vehicle: methylcellulose (MC) 98 % of control | dose: 125.0 mg/kg/injection, schedule: Q01DX005 (oral), vehicle: saline 110 % of control | dose: 125.0 mg/kg/injection, schedule: Q01DX009 (oral), vehicle: Klucel (hydroxypropylcellulose) (HPC) 105 % of control | dose: 125.0 mg/kg/injection, schedule: Q01DX009 (oral), vehicle: saline 103 % of control | dose: 125.0 mg/kg/injection, schedule: Q04DX003 (oral), vehicle: saline 102 % of control | dose: 125.0 mg/kg/injection, schedule: Q04DX003 (oral), vehicle: water 106 % of control | dose: 125.0 mg/kg/injection, schedule: Q07DX002 (ip), vehicle: water 103 % of control | dose: 128.0 mg/kg/injection, schedule: Q01DX001 (ip), vehicle: Klucel (hydroxypropylcellulose) (HPC) 103 % of control | dose: 128.0 mg/kg/injection, schedule: Q01DX001 (sc), vehicle: Klucel (hydroxypropylcellulose) (HPC) 100 % of control | dose: 128.0 mg/kg/injection, schedule: Q01DX009 (ip), vehicle: Klucel (hydroxypropylcellulose) (HPC) 94 % of control | dose: 128.0 mg/kg/injection, schedule: Q01DX009 (sc), vehicle: Klucel (hydroxypropylcellulose) (HPC) 103 % of control | dose: 128.0 mg/kg/injection, schedule: Q04DX003 (ip), vehicle: Klucel (hydroxypropylcellulose) (HPC) 99 % of control | dose: 128.0 mg/kg/injection, schedule: Q08DX002 (ip), vehicle: Klucel (hydroxypropylcellulose) (HPC) 97 % of control | dose: 140.0 mg/kg/injection, schedule: Q01DX009 (ip), vehicle: other 104 % of control | dose: 140.0 mg/kg/injection, schedule: Q01DX009 (oral), vehicle: Klucel (hydroxypropylcellulose) (HPC) 104 % of control and 105 % of control | dose: 140.0 mg/kg/injection, schedule: Q01DX009 (oral), vehicle: methylcellulose (MC) 109 % of control and 111 % of control | dose: 150.0 mg/kg/injection, schedule: Q01DX009 (oral), vehicle: Klucel (hydroxypropylcellulose) (HPC) 107 % of control | dose: 150.0 mg/kg/injection, schedule: Q01DX009 (oral), vehicle: other 108 % of control | dose: 150.0 mg/kg/injection, schedule: Q01DX009 (oral), vehicle: saline 108 % of control | dose: 150.0 mg/kg/injection, schedule: Q04DX003 (ip), vehicle: other 98 % of control | dose: 150.0 mg/kg/injection, schedule: Q04DX003 (oral), vehicle: Klucel (hydroxypropylcellulose) (HPC) 107 % of control and 111 % of control | dose: 150.0 mg/kg/injection, schedule: Q04DX003 (oral), vehicle: methylcellulose (MC) 104 % of control and 105 % of control | dose: 175.0 mg/kg/injection, schedule: Q01DX009 (oral), vehicle: methylcellulose (MC) 105 % of control and 108 % of control | dose: 200.0 mg/kg/injection, schedule: Q04DX003 (ip), vehicle: other 96 % of control | dose: 200.0 mg/kg/injection, schedule: Q04DX003 (oral), vehicle: Klucel (hydroxypropylcellulose) (HPC) 95 % of control and 104 % of control | dose: 200.0 mg/kg/injection, schedule: Q04DX003 (oral), vehicle: methylcellulose (MC) 98 % of control and 104 % of control | dose: 200.0 mg/kg/injection, schedule: Q04DX003 (oral), vehicle: other 108 % of control | dose: 225.0 mg/kg/injection, schedule: Q01DX009 (oral), vehicle: methylcellulose (MC) 110 % of control | dose: 250.0 mg/kg/injection, schedule: Q01DX005 (oral), vehicle: saline 107 % of control | dose: 250.0 mg/kg/injection, schedule: Q01DX009 (oral), vehicle: saline 103 % of control | dose: 250.0 mg/kg/injection, schedule: Q04DX003 (ip), vehicle: Klucel (hydroxypropylcellulose) (HPC) 103 % of control | dose: 250.0 mg/kg/injection, schedule: Q04DX003 (oral), vehicle: Klucel (hydroxypropylcellulose) (HPC) 108 % of control | dose: 250.0 mg/kg/injection, schedule: Q04DX003 (oral), vehicle: methylcellulose (MC) 103 % of control and 104 % of control | dose: 250.0 mg/kg/injection, schedule: Q04DX003 (oral), vehicle: saline 105 % of control | dose: 250.0 mg/kg/injection, schedule: Q04DX003 (oral), vehicle: water 104 % of control | dose: 250.0 mg/kg/injection, schedule: Q07DX002 (ip), vehicle: water 97 % of control | dose: 256.0 mg/kg/injection, schedule: Q01DX001 (ip), vehicle: Klucel (hydroxypropylcellulose) (HPC) 103 % of control | dose: 256.0 mg/kg/injection, schedule: Q01DX001 (sc), vehicle: Klucel (hydroxypropylcellulose) (HPC) 101 % of control | dose: 256.0 mg/kg/injection, schedule: Q01DX009 (sc), vehicle: Klucel (hydroxypropylcellulose) (HPC) 94 % of control | dose: 256.0 mg/kg/injection, schedule: Q04DX003 (ip), vehicle: Klucel (hydroxypropylcellulose) (HPC) 111 % of control | dose: 256.0 mg/kg/injection, schedule: Q08DX002 (ip), vehicle: Klucel (hydroxypropylcellulose) (HPC) 111 % of control | dose: 300.0 mg/kg/injection, schedule: Q04DX003 (ip), vehicle: Klucel (hydroxypropylcellulose) (HPC) 94 % of control | dose: 300.0 mg/kg/injection, schedule: Q04DX003 (oral), vehicle: Klucel (hydroxypropylcellulose) (HPC) 109 % of control and 111 % of control | dose: 300.0 mg/kg/injection, schedule: Q04DX003 (oral), vehicle: methylcellulose (MC) 108 % of control | dose: 500.0 mg/kg/injection, schedule: Q01DX005 (oral), vehicle: saline 107 % of control | dose: 500.0 mg/kg/injection, schedule: Q01DX009 (oral), vehicle: saline 110 % of control | dose: 500.0 mg/kg/injection, schedule: Q04DX003 (oral), vehicle: saline 108 % of control | dose: 500.0 mg/kg/injection, schedule: Q04DX003 (oral), vehicle: water 107 % of control | dose: 512.0 mg/kg/injection, schedule: Q01DX001 (sc), vehicle: Klucel (hydroxypropylcellulose) (HPC) 102 % of control | dose: 1000.0 mg/kg/injection, schedule: Q01DX005 (oral), vehicle: saline 108 % of control | dose: 1000.0 mg/kg/injection, schedule: Q04DX003 (oral), vehicle: saline 105 % of control | dose: 1024.0 mg/kg/injection, schedule: Q01DX001 (sc), vehicle: Klucel (hydroxypropylcellulose) (HPC) 100 % of control
